We go through 39 compounds from US20240368174A1, “Antiviral Heterocyclic Compounds” (Enanta Pharmaceuticals, Inc., priority 2023, published 2024).

The first assay relates to HMPV clinical isolate A2 strain TN 94-49. In words: HMPV antiviral assay, Method 2 (LLC-MK2 cells with CP-100-356, ATP-Lite). Type of assay: cell-based. The note with it: human metapneumovirus, 168 h; hMPV A2 TN/94-49, LLC-MK2 cells with 4 μM CP-100-356, 7 days, ATP-Lite. The protocol:
In vitro HMPV antiviral activity was evaluated using the clinical isolate A2 strain TN 94-49 (obtained from Dr. John Williams, Vanderbilt University, Tennessee) and LLC-MK2 cells (Millipore Sigma CB_85062804), an immortalized kidney epithelial cell line from Macaca mulatta. Compounds were resuspended in dimethyl sulfoxide (DMSO) at 10 mM, serially diluted and added to a 384-well source plate. Subsequently, the compounds were diluted and transferred onto 384-well assay plates using the Echo-650 automated liquid handling system (Beckman Coulter, Indiana). The test compounds were assessed in duplicate at a top concentration of 200 nM followed by 2.5-fold serial dilutions to give a total of 10 concentration points. DMSO control wells were also included on the assay plates and were either infected or not, acting as positive and negative controls. A2 TN 94-49 virus infections were performed in-suspension with LLC-MK2 cells. The cells were washed twice with PBS and removed from the cell-culture flask with 0.25% trypsin-EDTA (Thermo Fisher Scientific, MA). The trypsin-EDTA was inactivated by resuspending in 2% fetal bovine serum (FBS) and OptiMEM (ThermoFisher Scientific, MA) containing 1% antibiotic-antimycotic. Cells were pelleted by centrifuging for 5 minutes at 800 rpm, the supernatant was removed, and cells were re-suspended and washed in PBS plus 100 μg/mL CaCl2). This step was performed twice. Cells were then re-suspended in serum-free (SF)-OptiMEM containing 4 μg/mL TPCK-Trypsin (Sigma Aldrich, MO), 1% antibiotic-antimycotic (ThermoFisher Scientific, MA), 100 μg/mL CaCl2), and 4 μM of CP-100-356, a P-glycoprotein inhibitor. Cells were counted and seeded at a density of 5,000 cells/well, 12.5 μL/well. Virus infections were done at a multiplicity of infection (MOI) of 0.16 with 12.5 μL added per well. Virus infections were performed in infection media which contained SF-OptiMEM, 100 μg/mL CaCl2) and 1% antibiotic-antimycotic. HMPV viral stocks are suspended in infection media+5% glycerol, thus an equal volume of infection media+5% glycerol was added to uninfected wells to equalize the final % glycerol across all wells of the assay plate. The final concentration of TPCK-trypsin was 2 μg/mL. The final concentration of CP-100-356 was 2 μM. The assay plates were incubated at 37° C., 5% CO2 for 7 days. After 7 days incubation, 12.5 μL of ATP-Lite (PerkinElmer, MA) was added to each well and the raw luminescence values were determined using the Envision 2104 (Perkin Elmer, MA). The average of the raw luminescence values for the cells and virus only positive control wells was subtracted from all conditions tested and the percent cell health was determined by dividing these values by the average of the cells only negative control wells. EC50 values were then calculated by non-linear regression using a four-parameter curve logistic equation. The curve fit model employed was XLFit Dose Response One Site Model 200: y=(A+(B/(1+((x/C)^D)))), where A is the minimum y value, B is the maximum y value, C is the log EC50 value, and D is the slope factor.
Broadly, the EC50 is the concentration giving half of the maximal effect. High values mean lower potency in that assay, low ones higher potency in that assay. `COc1cc(C(=O)NC[C@](O)(c2cc3c(c(-c4cc(C(F)(F)F)ncc4F)n2)OC[C@]3(C)C(N)=O)C2(F)CC2)cc2cn(C3(F)CC3)nc12` [Example 666]: the EC50 is less than 200 nM.

The compound `COc1cc(C(=O)NC[C@@](O)(c2cccc(F)c2)c2cc3c(c(-c4ccnc(C)c4Cl)n2)OC[C@]3(C)C(N)=O)cc2cc(Cl)c(C)nc12` [Example 700] returned an EC50 of less than 200 nM.

Compound `COc1cc(C(=O)NC[C@](O)(c2cc3c(c(-n4ccc5c(C(F)(F)F)cccc54)n2)OC[C@]3(C)C(N)=O)C2CC2)cc2cn(C3CC3)nc12` [Example 869] registered a 50% effective concentration (EC50) greater than 200 nM.

Turning to `COc1cc(C(=O)NC[C@](O)(c2cc3c(c(-c4ccnc(C(C)C)c4Cl)n2)OC[C@]3(C)C(N)=O)C2CC2)cc2oc(C3CC3)nc12` [Example 909], the EC50 was greater than 200 nM.

In turn, `COc1cc(C(=O)NC[C@@](O)(c2ccccc2)c2cc3c(c(-c4ccnc(C)c4Cl)n2)OC[C@]3(C)C(N)=O)cc2cn(C(F)F)nc12` [Example 694] had an EC50 of less than 200 nM.

In turn, `COc1cc(C(=O)NC[C@](O)(c2cc3c(c(-c4ccnc(C(F)F)c4F)n2)OC[C@]3(C)C(N)=O)C2CC2)cc2cn(C3CC3)nc12` [Example 803] gave an EC50 of less than 200 nM.

With `COc1cc(C(=O)NC[C@](O)(c2cc3c(c(-c4ccnc(C5CCOCC5)c4Cl)n2)OC[C@]3(C)C(N)=O)C2CC2)cc2cn(C(F)F)nc12` [Example 904], the EC50 was greater than 200 nM.

In the case of `COc1cc(C(=O)NC[C@](O)(c2cc3c(c(-c4ccnc(C(F)F)c4Cl)n2)OC[C@]3(C)C(N)=O)C(F)(F)F)cc2cn(C(F)F)nc12` [Example 797], the EC50 was less than 200 nM.

Regarding `COc1cc(C(=O)NC[C@](O)(c2cc3c(c(-c4ccnc5c4OCCO5)n2)OC[C@]3(C)C(N)=O)C2CC2)cc2cn(C3CC3)nc12` [Example 812], the EC50 was greater than 200 nM.

`COc1nccc(-c2nc([C@@](O)(CNC(=O)c3cc(OC)c4nn(C(F)F)cc4c3)C3(F)CC3)cc3c2OC[C@]3(C)C(N)=O)c1Cl` [Example 655] had an EC50 of less than 200 nM.

Regarding `COc1nccc(-c2nc([C@@](O)(CNC(=O)c3cc(OC4CC4)c4nn(C(F)F)cc4c3)C3CC(F)(F)C3)cc3c2OC[C@]3(C)C(N)=O)c1Cl` [Example 898], the EC50 is greater than 200 nM.

`COc1nccc(-c2nc([C@](O)(CNC(=O)c3cc(OC)c4nn(C5CC5)cc4c3)c3cccc(F)c3)cc3c2OC[C@]3(C)C(N)=O)c1Cl` [Example 876] registered a concentration for a half-maximal effect (EC50) greater than 200 nM.

For the compound `COc1cc(C(=O)NC[C@](O)(c2cc3c(c(-c4ccnc(C(C)C)c4Cl)n2)OC[C@]3(C)C(N)=O)C2CC2)cc2cc(C3CC3)nn12` [Example 910], the EC50 is greater than 200 nM.

The same assay, now with this note: human metapneumovirus; hMPV A2 TN/94-49, LLC-MK2 cells with CP-100-356, Method 2.
The compound `COc1cc(C(=O)NC[C@](O)(c2cccc(F)c2)c2cc3c(c(-c4cc(Cl)ncc4F)n2)OC[C@]3(C)C(N)=O)cc2cn(C3CC3)nc12` [Example 411] gave an EC50 greater than 200 nM.

Compound `COc1cc(C(=O)NC[C@@](O)(c2ccnc(F)c2)c2cc3c(c(-c4cccc(Cl)c4Cl)n2)OC[C@]3(C)C(N)=O)cc2cn(C3CC3)nc12` [Example 492] registered an EC50 of less than 200 nM.

For the compound `C[C@]1(C(N)=O)COc2c1cc([C@@](O)(CNC(=O)c1cc(OC3CC3)n3nc(C4CC4)cc3c1)C1CC1)nc2-c1cc(C(F)(F)F)c(F)cc1F` [Example 328], the EC50 was less than 200 nM.

Turning to `C[C@]1(C(N)=O)COc2c1cc([C@@](O)(CNC(=O)c1cc(Cl)c3nn(C4CC4)cc3c1)C(F)(F)F)nc2-c1ccnc(C(F)(F)F)c1Cl` [Example 535], the concentration giving a half-maximal response (EC50) was less than 200 nM.

The compound `COc1cc(C(=O)NC[C@@](O)(c2ccccc2)c2cc3c(c(-c4ccnc(C(F)F)c4Cl)n2)OC[C@]3(C)C(N)=O)cc2oc(C3CC3)nc12` [Example 564] returned an EC50 of less than 200 nM.

In turn, `COc1cc(C(=O)NC[C@](O)(c2cc3c(c(-c4cc(C(F)(F)F)c(F)cc4F)n2)OC[C@]3(C)C(N)=O)C2CC2)cc2cc(C(F)(F)F)cnc12` [Example 329] displayed an EC50 of less than 200 nM.

The compound `COc1cc(C(=O)NC[C@](O)(c2cc3c(c(-n4ccc5cnccc54)n2)OC[C@]3(C)C(N)=O)C2CC2)cc2cn(C3CC3)nc12` [Example 447] displayed an EC50 of less than 200 nM.

`COc1cc(C(=O)NC[C@@](O)(c2cccc(F)n2)c2cc3c(c(-c4cc(Cl)c(F)cc4F)n2)OC[C@]3(C)C(N)=O)cc2cn(C(F)F)nc12` [Example 205] returned an EC50 of less than 200 nM.

Compound `COc1cc(C(=O)NC[C@@](O)(c2ccccc2)c2cc3c(c(-c4cc(Cl)c(F)cc4F)n2)OC[C@]3(C)C(N)=O)cc2oc(N)nc12` [Example 237] registered an EC50 of less than 200 nM.

On to `COc1cc(C(=O)NC[C@](O)(c2cc3c(c(-c4ccnc(F)c4Cl)n2)OC[C@]3(C)C(N)=O)C2CC2)cc2cn(C(F)F)nc12` [Example 207], for which the EC50 was less than 200 nM.

In the case of `C[C@]1(C(N)=O)COc2c1cc([C@@](O)(CNC(=O)c1cc(Cl)c3[nH]ncc3c1)c1ccccc1)nc2-c1cc(Cl)c(F)cc1F` [Example 117], the EC50 was greater than 200 nM.

In turn, `COc1cc(C(=O)NC[C@](O)(c2cc3c(c(-c4ccnc(C(F)F)c4Cl)n2)OC[C@]3(C)C(N)=O)C(F)(F)F)cc2oc(C(F)F)nc12` [Example 552] came in with an EC50 of less than 200 nM.

As for `COc1cc(C(=O)NC[C@](O)(c2cc3c(c(-c4cc(C(F)F)c(F)cc4F)n2)OC[C@]3(C)C(N)=O)C(F)(F)F)cc2cn(C3CC3)nc12` [Example 396], the EC50 was less than 200 nM.

On to `COc1cc(C(=O)NC[C@](O)(c2cc3c(c(-c4ccnc(F)c4C)n2)OC[C@]3(C)C(N)=O)C2CC2)cc2cn(C3CC3)nc12` [Example 383], for which the EC50 was less than 200 nM.

Regarding `COc1cc(C(=O)NCC(O)(c2ccc(F)cn2)c2cc3c(c(-c4cc(Cl)c(F)cc4F)n2)OC[C@]3(C)C(N)=O)cc2cn(C3CC3)nc12` (stereo partly drawn) [Example 210], the EC50 is less than 200 nM.

In the case of `COc1nccc(-c2nc([C@@](O)(CNC(=O)c3cc(OC)c4nc(C(F)F)oc4c3)C(F)(F)F)cc3c2OC[C@]3(C)C(N)=O)c1Cl` [Example 547], the EC50 was greater than 200 nM.

Regarding `COc1cc(C(=O)NC[C@](O)(c2cc3c(c(-c4ccnc(F)c4F)n2)OC[C@]3(C)C(N)=O)C2CC2)cc2cn(C3CC3)nc12` [Example 381], the EC50 was less than 200 nM.

Consider `COc1cc(C(=O)NC[C@](O)(c2cc3c(c(-c4ccnc(C)c4Cl)n2)OC[C@]3(C)C(N)=O)C2(F)CC2)cc2sc(C)nc12` [Example 530], for which the EC50 was greater than 200 nM.

As to `COc1cc(C(=O)NC[C@@](O)(c2cccc(F)c2)c2cc3c(c(-c4cccc(Cl)c4Cl)n2)OC[C@]3(C)C(N)=O)cn2cc(C3CC3)nc12` [Example 337], the EC50 was less than 200 nM.

Take `COc1cc(C(=O)NC[C@@](O)(c2ccccc2)c2cc3c(c(-c4cc(C(F)(F)F)ccc4F)n2)OC[C@]3(C)C(N)=O)cc2oc(C3CC3)nc12` [Example 332]: the EC50 was less than 200 nM.

The compound `COc1cc(C(=O)NC[C@@](O)(c2cccc(F)c2)c2cc3c(c(-c4ccc(C(C)(C)O)cc4)n2)OC[C@]3(C)C(N)=O)cc2cn(C3(F)CC3)nc12` [Example 397] had an EC50 greater than 200 nM.

Consider `COc1cc(C(=O)NC[C@@](O)(c2cccc(S(C)(=O)=O)c2)c2cc3c(c(-c4cc(Cl)c(F)cc4F)n2)OC[C@]3(C)C(N)=O)cc2cn(C3CC3)nc12` [Example 483], for which the EC50 was less than 200 nM.

For `COc1cc(C(=O)NC[C@@](O)(c2cccc(F)c2)c2cc3c(c(-c4ccc5c(c4Cl)OC(F)(F)O5)n2)OC[C@]3(C)C(N)=O)cc2oc(C)nc12` [Example 285], the EC50 is less than 200 nM.

For `[2H]C([2H])([2H])NC(=O)[C@@]1(C)COc2c1cc([C@@](O)(CNC(=O)c1cc(OC)c3nn(C4(F)CC4)cc3c1)c1ccccc1)nc2-c1cc(Cl)c(F)cc1F` [Example 109], the EC50 was less than 200 nM.

`COc1cc(C(=O)NC[C@@](O)(c2ccnc(C)c2)c2cc3c(c(-c4cc(Cl)c(F)cc4F)n2)OC[C@]3(C)C(N)=O)cc2cn(C3CC3)nc12` [Example 485] had an EC50 of less than 200 nM.

The compound `C[C@]1(C(N)=O)COc2c1cc([C@@](O)(CNC(=O)c1cc(OC3CC3)c3nc(C4CC4)sc3c1)c1ccccc1)nc2-c1cc(Cl)c(F)cc1F` [Example 190] had an EC50 greater than 200 nM.
